From ChEMBL document CHEMBL4257571, “Discovery of 5-(2-chloro-4'-(1H-imidazol-1-yl)-[1,1'-biphenyl]-4-yl)-1H-tetrazole as potent and orally efficacious S-nitrosoglutathione reductase (GSNOR) inhibitors for the potential treatment of COPD” (Bioorg Med Chem Lett, 2018)
In brackets after ≈: the same amount, converted by molar mass.

Legend:
Mus musculus [1] = experiment: (§1) Anti-inflammatory activity in C57BL/6 mouse model of cigarette smoke induced chronic obstructive pulmonary disease assessed as total leukocyte count in bronchoalveolar lavage at 3 mg/kg, po administered once daily for 7 days 1 hr prior to first smoke exposure and measured on day 8 after last smoke exposure post single drug treatment by hemocytometry; type: functional
[2] = Half life in C57/BL6 mouse at 3 mg/kg, iv; type: ADME, organism-based; settings: in vivo
[3] = target: Alcohol dehydrogenase class-3 (Homo sapiens, UniProt P11766); experiment: Inhibition of human GSNOR assessed as reduction in NADH consumption after 3 mins by spectrophotometric analysis
Mus musculus [4] = experiment: as §1, with “neutrophil” for “total leukocyte”, “Leishman's staining based assay” for “hemocytometry”; type: functional
[5] = Ratio of drug uptake in lung to plasma of C57/BL6 mouse at 3 mg/kg, iv or 30 mg/kg, po; type: ADME, organism-based
Mus musculus [6] = experiment: as §1, with “neutrophil” for “total leukocyte”, “100” for “3”, “Leishman's staining based assay” for “hemocytometry”; type: functional
Mus musculus [7] = experiment: as §1, with “macrophages” for “total leukocyte”, “10” for “3”, “Leishman's staining based assay” for “hemocytometry”; type: functional
[8] = Aqueous solubility of compound in fed state simulated intestinal fluid at pH 5.2; type: physicochemical
Mus musculus [9] = experiment: Anti-inflammatory activity in po dosed C57BL/6 mouse model of cigarette smoke induced chronic obstructive pulmonary disease assessed as reduction in cellular infiltration in bronchoalveolar lavage administered once daily for 7 days 1 hr prior to first smoke exposure and measured on day 8 after last smoke exposure post single drug treatment by hemocytometry; type: functional, organism-based
CYP1A2 = target: T1, CYP1A2 (Homo sapiens, UniProt P05177); experiment: Inhibition of CYP1A2 in human liver microsomes at 10 uM after 20 mins in presence of NADPH by LC/MS/MS analysis relative to control; type: ADME; settings: liver microsomes
T1 sequence (P05177 whole entry): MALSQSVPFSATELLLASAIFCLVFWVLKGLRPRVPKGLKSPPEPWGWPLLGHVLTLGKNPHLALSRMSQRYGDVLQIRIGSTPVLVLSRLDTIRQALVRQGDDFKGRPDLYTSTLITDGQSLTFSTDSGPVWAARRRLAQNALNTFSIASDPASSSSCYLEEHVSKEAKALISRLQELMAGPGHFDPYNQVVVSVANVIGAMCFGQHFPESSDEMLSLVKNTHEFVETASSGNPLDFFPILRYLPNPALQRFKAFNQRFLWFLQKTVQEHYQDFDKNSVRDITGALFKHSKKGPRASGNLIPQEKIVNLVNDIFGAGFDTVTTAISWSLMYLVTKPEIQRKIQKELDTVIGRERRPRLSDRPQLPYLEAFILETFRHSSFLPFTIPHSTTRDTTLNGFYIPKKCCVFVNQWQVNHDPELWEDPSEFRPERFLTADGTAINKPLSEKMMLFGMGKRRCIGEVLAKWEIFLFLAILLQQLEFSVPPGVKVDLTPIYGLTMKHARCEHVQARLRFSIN

CYP2D6 = CYP2D6 (Homo sapiens, UniProt P10635); experiment: Inhibition of CYP2D6 in human liver microsomes at 10 uM after 20 mins in presence of NADPH by LC/MS/MS analysis relative to control; type: ADME; settings: liver microsomes
[10] = Volume of distribution in C57/BL6 mouse at 3 mg/kg, iv; type: ADME, organism-based; settings: in vivo, read-out: Vz
Mus musculus [11] = experiment: as §1, with “macrophages” for “total leukocyte”, “30” for “3”, “Leishman's staining based assay” for “hemocytometry”; type: functional
Mus musculus [12] = experiment: as §1, with “100” for “3”; type: functional
Mus musculus [13] = experiment: as §1, with “neutrophil” for “total leukocyte”, “10” for “3”, “Leishman's staining based assay” for “hemocytometry”; type: functional
CYP2C19 = CYP2C19 (Homo sapiens, UniProt P33261); experiment: Inhibition of CYP2C19 in human liver microsomes at 10 uM after 40 mins in presence of NADPH by LC/MS/MS analysis relative to control; type: ADME
[14] = AUC (0 to 24 hrs) in C57/BL6 mouse at 30 mg/kg, po; type: ADME, organism-based; set-up: time < 24 hr, dose 30 mg/kg, route oral; settings: in vivo
Mus musculus [15] = experiment: as §1, with “macrophages” for “total leukocyte”, “100” for “3”, “Leishman's staining based assay” for “hemocytometry”; type: functional
CYP3A4 = CYP3A4 (Homo sapiens, UniProt P08684); experiment: Inhibition of CYP3A4 in human liver microsomes at 10 uM after 20 mins in presence of NADPH by LC/MS/MS analysis relative to control; type: ADME; settings: liver microsomes
[16] = Efflux ratio of apparent permeability across basolateral to apical side over apical to basolateral side in human Calu3 cells; type: ADME, cell-based, Calu-3
[17] = Cmax in C57/BL6 mouse at 30 mg/kg, po; type: ADME, organism-based; set-up: dose 30 mg/kg, route oral; settings: in vivo
[18] = target: All-trans-retinol dehydrogenase [NAD(+)] ADH1B (Homo sapiens, UniProt P00325); experiment: Inhibition of ADH1B (unknown origin) assessed as reduction in NADH production by spectrophotometric analysis
Mus musculus [19] = experiment: as §1, with “30” for “3”; type: functional
[20] = Aqueous solubility of compound in phosphate buffer at pH 6.8; type: physicochemical
[21] = Oral bioavailability in C57/BL6 mouse at 30 mg/kg; type: ADME, organism-based; settings: in vivo
[22] = Protein binding in mouse plasma at 10 uM by LC/MS/MS based equilibrium dialysis analysis; type: ADME, cell-free; settings: read-out: PPB (converted)
[23] = Protein binding in human plasma at 10 uM by LC/MS/MS based equilibrium dialysis analysis; type: ADME, cell-free; settings: read-out: PPB
[24] = Metabolic stability of human liver microsomes assessed as parent compound remaining at 0.1 uM after 60 mins in presence of NADPH by LC/MS/MS analysis; type: ADME, microsome; settings: read-out: Stability
[25] = Metabolic stability of mouse liver microsomes assessed as parent compound remaining at 0.1 uM after 60 mins in presence of NADPH by LC/MS/MS analysis; type: ADME, microsome; settings: read-out: Stability
[26] = Tmax in C57/BL6 mouse at 30 mg/kg, po; type: ADME, organism-based; settings: in vivo
hERG (KCNH2) = hERG (KCNH2) (Homo sapiens, UniProt Q12809); experiment: Inhibition of human ERG at 10 uM by patch clamp assay relative to control
[27] = Aqueous solubility of compound in fasted state stimulated intestinal fluid at pH 6.2; type: physicochemical; settings: fasted state simulated intestinal fluid
[28] = Inhibition of MT3 receptor (unknown origin) at 10 uM relative to control
[29] = Metabolic stability of rat liver microsomes assessed as parent compound remaining at 0.1 uM after 60 mins in presence of NADPH by LC/MS/MS analysis; type: ADME, microsome; settings: read-out: Stability
Homo sapiens = organism: Homo sapiens; experiment: Inhibition of chloride channel (unknown origin) at 10 uM relative to control

Chain of CYP2C19 (P33261 whole entry): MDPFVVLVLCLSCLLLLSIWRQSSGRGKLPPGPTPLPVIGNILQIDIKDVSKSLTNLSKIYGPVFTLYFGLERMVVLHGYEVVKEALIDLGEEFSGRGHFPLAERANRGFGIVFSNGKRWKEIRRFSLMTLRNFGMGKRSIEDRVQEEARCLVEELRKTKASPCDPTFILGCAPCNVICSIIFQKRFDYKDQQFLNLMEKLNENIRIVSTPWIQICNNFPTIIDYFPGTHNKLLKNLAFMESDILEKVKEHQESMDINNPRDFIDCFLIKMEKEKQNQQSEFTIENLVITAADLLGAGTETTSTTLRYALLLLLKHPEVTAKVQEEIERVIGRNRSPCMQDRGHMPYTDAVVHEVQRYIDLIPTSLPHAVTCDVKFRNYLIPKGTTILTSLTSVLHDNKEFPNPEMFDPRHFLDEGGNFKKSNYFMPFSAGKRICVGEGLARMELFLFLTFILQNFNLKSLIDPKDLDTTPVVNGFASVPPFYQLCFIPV
Chain of All-trans-retinol dehydrogenase [NAD(+)] ADH1B (P00325 whole entry): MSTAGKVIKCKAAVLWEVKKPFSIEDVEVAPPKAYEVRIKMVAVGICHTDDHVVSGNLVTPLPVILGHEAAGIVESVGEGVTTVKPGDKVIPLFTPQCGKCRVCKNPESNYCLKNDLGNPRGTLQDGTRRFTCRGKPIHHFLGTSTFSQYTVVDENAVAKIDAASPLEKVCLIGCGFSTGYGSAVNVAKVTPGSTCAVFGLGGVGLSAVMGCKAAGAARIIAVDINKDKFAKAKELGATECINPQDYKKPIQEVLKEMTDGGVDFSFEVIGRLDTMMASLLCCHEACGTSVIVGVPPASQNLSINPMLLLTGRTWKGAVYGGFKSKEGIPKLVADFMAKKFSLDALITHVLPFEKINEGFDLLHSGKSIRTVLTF
Chain of CYP2D6 (P10635 whole entry): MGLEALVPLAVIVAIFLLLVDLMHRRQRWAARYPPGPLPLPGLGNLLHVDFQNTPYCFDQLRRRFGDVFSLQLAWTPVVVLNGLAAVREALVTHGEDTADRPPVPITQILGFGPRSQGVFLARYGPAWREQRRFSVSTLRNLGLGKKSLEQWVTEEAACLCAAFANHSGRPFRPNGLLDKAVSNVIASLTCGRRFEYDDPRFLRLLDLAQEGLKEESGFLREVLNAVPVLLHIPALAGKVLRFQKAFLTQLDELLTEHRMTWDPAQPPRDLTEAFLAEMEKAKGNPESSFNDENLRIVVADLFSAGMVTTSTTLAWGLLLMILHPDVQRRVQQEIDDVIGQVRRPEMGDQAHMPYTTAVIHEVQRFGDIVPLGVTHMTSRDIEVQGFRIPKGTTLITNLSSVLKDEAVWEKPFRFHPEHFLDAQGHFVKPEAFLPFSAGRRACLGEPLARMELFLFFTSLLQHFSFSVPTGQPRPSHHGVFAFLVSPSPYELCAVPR
Chain of hERG (KCNH2) (Q12809 whole entry): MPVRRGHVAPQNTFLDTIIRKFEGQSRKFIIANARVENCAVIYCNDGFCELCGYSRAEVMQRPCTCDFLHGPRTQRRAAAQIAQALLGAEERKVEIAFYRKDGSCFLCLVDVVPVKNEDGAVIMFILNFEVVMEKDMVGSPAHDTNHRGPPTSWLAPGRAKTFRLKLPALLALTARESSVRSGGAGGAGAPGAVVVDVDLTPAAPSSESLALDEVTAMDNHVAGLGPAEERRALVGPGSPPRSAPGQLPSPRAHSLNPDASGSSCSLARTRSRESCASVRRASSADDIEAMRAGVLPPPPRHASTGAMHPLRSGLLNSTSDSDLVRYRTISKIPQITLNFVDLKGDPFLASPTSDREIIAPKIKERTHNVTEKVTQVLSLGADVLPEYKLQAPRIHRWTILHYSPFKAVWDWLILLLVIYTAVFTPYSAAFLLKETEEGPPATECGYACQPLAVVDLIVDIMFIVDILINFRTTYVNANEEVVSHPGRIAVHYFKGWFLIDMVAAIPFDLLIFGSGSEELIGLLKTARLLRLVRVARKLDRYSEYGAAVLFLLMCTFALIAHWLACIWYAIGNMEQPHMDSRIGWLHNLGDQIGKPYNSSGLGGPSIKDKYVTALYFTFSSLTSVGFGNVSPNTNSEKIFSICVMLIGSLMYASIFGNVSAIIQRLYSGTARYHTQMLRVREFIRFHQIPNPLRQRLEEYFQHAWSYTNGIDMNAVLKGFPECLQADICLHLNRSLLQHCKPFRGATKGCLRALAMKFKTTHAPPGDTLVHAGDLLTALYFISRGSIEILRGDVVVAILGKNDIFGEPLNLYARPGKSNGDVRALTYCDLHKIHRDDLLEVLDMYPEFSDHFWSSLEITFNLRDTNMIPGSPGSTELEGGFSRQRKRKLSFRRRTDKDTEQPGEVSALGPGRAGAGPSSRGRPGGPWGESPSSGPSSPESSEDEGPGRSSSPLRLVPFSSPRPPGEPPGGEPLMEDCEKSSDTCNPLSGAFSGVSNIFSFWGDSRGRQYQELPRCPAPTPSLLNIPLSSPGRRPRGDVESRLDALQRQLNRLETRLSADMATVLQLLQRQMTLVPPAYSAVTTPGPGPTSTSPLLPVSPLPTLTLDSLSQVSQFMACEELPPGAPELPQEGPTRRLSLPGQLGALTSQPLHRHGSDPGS
Chain of CYP3A4 (P08684 whole entry): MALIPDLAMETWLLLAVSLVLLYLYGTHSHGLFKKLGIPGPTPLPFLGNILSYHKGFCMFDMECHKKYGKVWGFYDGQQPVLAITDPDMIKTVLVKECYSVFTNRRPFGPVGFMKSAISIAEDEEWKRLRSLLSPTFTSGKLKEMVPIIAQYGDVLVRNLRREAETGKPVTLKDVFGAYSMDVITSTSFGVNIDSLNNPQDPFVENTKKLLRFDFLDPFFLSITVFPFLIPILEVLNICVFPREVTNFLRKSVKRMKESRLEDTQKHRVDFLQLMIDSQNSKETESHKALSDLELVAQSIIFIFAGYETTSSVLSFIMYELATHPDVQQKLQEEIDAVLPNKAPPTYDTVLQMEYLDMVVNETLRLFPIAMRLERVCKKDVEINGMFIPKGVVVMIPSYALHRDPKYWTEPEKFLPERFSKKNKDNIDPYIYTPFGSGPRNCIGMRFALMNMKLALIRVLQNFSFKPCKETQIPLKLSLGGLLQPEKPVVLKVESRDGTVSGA
Chain of Alcohol dehydrogenase class-3 (P11766 whole entry): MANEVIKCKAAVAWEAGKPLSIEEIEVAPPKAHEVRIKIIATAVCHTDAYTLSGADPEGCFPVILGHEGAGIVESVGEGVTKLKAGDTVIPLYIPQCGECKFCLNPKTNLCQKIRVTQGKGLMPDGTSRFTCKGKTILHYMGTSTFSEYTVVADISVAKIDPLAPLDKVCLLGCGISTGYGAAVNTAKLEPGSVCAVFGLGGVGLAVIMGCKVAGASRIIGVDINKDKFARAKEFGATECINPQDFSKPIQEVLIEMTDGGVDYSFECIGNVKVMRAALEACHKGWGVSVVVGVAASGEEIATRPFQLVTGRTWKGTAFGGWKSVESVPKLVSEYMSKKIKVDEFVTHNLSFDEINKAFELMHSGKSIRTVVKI

Clc1cc(-c2nnn[nH]2)ccc1-c1ccc(-n2ccnc2)cc1
Activity (Mus musculus [1]): 32% | half-life [2]: 3.4 h | IC50 [3]: 0.0092 µM | Activity (Mus musculus [4]): 19% | Kp [5]: 0.38 | Activity (Mus musculus [6]): 47% | Activity (Mus musculus [7]): 59% | solubility [8]: 0.6 µg/mL (≈ 1.86 µM) | Activity (Mus musculus [9]): Dose-dependent effect | inhibition at 20 min, 10 µM (CYP1A2): 32% | inhibition at 20 min, 10 µM (CYP2D6): 52% | Vd [10]: 0.41 L/kg | Activity (Mus musculus [11]): 61% | Activity (Mus musculus [12]): 53% | Activity (Mus musculus [13]): 25% | inhibition at 40 min, 10 µM (CYP2C19): 86% | AUC(0-t) at 24 h [14]: 69900 ng·h/mL | Activity (Mus musculus [15]): 61% | inhibition at 20 min, 10 µM (CYP3A4): 55% | efflux ratio [16]: 0.8 | Cmax [17]: 8960 ng/mL | IC50 [18]: 54 µM | Activity (Mus musculus [19]): 49% | solubility [20]: 7 µg/mL (≈ 21.7 µM) | bioavailability [21]: 21% | fraction unbound at 10 µM [22]: 0.015 | fraction unbound at 10 µM [23]: < 0.005 | remaining at 1 h, 0.1 µM [24]: 100% | remaining at 1 h, 0.1 µM [25]: 43% | Tmax [26]: 2 h | inhibition at 10 µM (hERG (KCNH2)): 11% | solubility [27]: 3.5 µg/mL (≈ 10.8 µM) | inhibition [28]: 100% | remaining at 1 h, 0.1 µM [29]: 83% | inhibition (Homo sapiens): 50%
